Laboratory results as given in US10214492B2, “Heterocyclic inhibitors of MCT4” (Vettore, LLC, priority 2016, dated 2019).
Like-named read-outs stand apart in the source and are kept apart here.

Legend:
[1] = Metabolic stability in human liver microsomes (in vitro t1/2); assay type: in vitro ADME; details: for half-life at 2 µM: human liver microsomes 0.5 mg/mL, 2 μM compound, read-out: Human microsome t1/2, min; for Human microsome % 60 min: human liver microsomes
Description: (§1) The following are assays that may be used to evaluate the metabolic stability of compounds of Formula (I) in human, rat, or mouse microsomes. The assays follow a common procedure recited below. 1. […] Two separated experiments were performed as follows. a) With NADPH: 10 μL of 20 mg/mL liver microsomes and 40 μL of 10 mM NADPH were added to the incubations. […] The final concentration of microsomes was 0.5 mg/mL. 3. The reaction was started with the addition of 4 μL of 200 μM control compound or test compound solutions. Verapamil was used as positive control in this study. The final concentration of test compound or control compound was 2 μM. 4. Aliquots of 50 μL were taken from the reaction solution at 0, 15, 30, 45 and 60 min. […] Samples were centrifuged at 3,220 g for 40 minutes. A 90 μL aliquot of the supernatant was mixed with 90 μL of ultra-pure H2O and then used for LC-MS/MS analysis. 5. Data analysis. All calculations were carried out using Microsoft Excel. Peak areas were determined from extracted ion chromatograms. The slope value, k, was determined by linear regression of the natural logarithm of the remaining percentage of the parent drug vs. incubation time curve. The in vitro half-life (in vitro t1/2) was determined from the slope value: in vitro t1/2=−(0.693)/k.

[2] = Metabolic stability in mouse liver microsomes (in vitro t1/2); assay type: in vitro ADME; details: for half-life at 2 µM: mouse liver microsomes 0.5 mg/mL, 2 μM compound, read-out: Mouse microsome t1/2, min; for Mouse microsome % 60 min: mouse liver microsomes
Description: as §1

MCT4 = MCT4 (Homo sapiens (Human), UniProt O15427); experiment: Assay 3: MCT4-mediated lactate transport in MDA-MB-231 breast cancer cells; assay type: cell-based
Sequence of MCT4 (O15427 whole entry, looked up): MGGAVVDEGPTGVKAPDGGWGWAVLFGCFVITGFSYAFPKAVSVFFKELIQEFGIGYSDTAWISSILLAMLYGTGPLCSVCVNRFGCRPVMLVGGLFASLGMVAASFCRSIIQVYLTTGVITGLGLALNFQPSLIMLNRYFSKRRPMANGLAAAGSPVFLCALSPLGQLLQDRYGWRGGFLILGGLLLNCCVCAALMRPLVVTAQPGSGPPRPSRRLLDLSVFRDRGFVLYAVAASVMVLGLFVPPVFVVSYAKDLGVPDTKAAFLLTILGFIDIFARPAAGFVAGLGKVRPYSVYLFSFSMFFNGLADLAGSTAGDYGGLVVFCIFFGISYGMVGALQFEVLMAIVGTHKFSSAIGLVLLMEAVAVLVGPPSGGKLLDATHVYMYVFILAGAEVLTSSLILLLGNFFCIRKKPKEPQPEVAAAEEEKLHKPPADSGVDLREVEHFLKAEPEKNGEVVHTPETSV
Sequence of MCT4 (P35613 whole entry partner, looked up): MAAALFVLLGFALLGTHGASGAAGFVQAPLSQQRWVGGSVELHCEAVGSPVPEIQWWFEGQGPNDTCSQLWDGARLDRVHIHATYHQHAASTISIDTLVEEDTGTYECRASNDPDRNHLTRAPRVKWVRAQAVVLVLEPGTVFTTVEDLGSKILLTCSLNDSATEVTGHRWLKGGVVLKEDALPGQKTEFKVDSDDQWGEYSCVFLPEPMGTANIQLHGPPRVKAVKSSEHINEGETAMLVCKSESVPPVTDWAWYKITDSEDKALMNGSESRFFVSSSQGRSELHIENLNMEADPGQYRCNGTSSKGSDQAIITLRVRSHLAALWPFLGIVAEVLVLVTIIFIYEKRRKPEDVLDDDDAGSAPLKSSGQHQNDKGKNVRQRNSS
Method in brief: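 MDA-MB-231 cells loaded with BCECF-AM, 5 min at 37° C, washed and resuspended in Tyrode's Solution, pH 7.4. MCT4 lactate/proton symport followed as the intracellular pH change reported by BCECF fluorescence.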

MCT1 = MCT1 (Homo sapiens (Human), UniProt P53985); experiment: Assay 4: MCT1-mediated lactate transport in BT20 breast cancer cells; assay type: cell-based; details: Table 27
Sequence of MCT1 (P53985 whole entry): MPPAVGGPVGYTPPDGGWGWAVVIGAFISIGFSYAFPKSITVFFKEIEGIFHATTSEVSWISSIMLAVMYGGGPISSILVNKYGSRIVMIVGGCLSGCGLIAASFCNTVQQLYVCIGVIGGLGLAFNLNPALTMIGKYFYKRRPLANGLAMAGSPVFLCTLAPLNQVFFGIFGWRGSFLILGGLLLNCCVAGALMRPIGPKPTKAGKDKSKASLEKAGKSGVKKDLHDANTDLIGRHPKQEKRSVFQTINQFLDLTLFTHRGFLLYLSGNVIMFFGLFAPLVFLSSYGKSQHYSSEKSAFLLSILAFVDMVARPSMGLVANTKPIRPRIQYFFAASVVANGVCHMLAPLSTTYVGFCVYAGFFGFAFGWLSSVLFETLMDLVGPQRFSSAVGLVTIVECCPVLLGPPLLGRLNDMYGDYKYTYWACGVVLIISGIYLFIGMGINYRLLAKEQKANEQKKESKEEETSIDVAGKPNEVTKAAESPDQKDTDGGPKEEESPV
Sequence of MCT1 (P35613 140-385 partner): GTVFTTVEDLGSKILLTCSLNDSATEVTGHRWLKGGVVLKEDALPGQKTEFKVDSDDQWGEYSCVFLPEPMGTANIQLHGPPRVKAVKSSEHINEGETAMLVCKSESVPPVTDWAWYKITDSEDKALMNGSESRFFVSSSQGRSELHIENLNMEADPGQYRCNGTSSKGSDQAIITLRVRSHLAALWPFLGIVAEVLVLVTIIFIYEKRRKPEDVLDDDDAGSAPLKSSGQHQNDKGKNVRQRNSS
Method in brief: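 BT20 cells loaded with BCECF-AM (30 mM DMSO stock) for 5 min at 37° C, washed and resuspended in Tyrode's Solution pH 7.4. Lactate uptake tracked via BCECF intracellular pH signal after adding 10 mM L-lactate.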

[3] = MDA-MB-231 cells, lactate transport

Row | SMILES | half-life at 2 µM [1] | Human microsome % 60 min [1] | half-life at 2 µM [2] | Mouse microsome % 60 min [2] | IC50 (MCT4; [3]) | IC50 (MCT1) | IC50 (MCT4)
1 | CC(C)COc1cccc(-c2cc(COC(C)(C)C(=O)O)nn2Cc2ccccc2Cl)c1 [Example 27, 2-([1-[(2-Chlorophenyl)methyl]-5-(3-(2-methyl-propoxy)phenyl)1H-pyrazol-3-yl]methoxy)-2-methylpropanoic acid] | 0.833 h | 43% | 1.02 h | 50% | – | – | –
2 | CC(C)Oc1cccc(-c2cc(COC(C)(C)C(=O)O)nn2Cc2ccccc2Cl)c1 [Example 35, 2-([1-[(2-Chlorophenyl)methyl]-5-(3-isopropoxyphenyl)1H-pyrazol-3-yl]methoxy)-2-methylpropanoic acid] | 1.92 h | 67% | 0.583 h | 31% | – | – | –
3 | COc1cccc(-c2cc(COC(C)(C)C(=O)O)nn2Cc2ccccc2OC)c1 [Example 36, 2-([5-(3-Methoxyphenyl)-1-[(2-methoxyphenyl)methyl]1H-pyrazol-3-yl]methoxy)-2-methylpropanoic acid] | 4.83 h | 85% | 20 h | 99% | – | – | –
4 | COc1cccc(-c2cc(COC(C)(C)C(=O)O)nn2Cc2ccccc2N(C)C)c1 [Example 38, 2-([1-[(2-(Dimethylamino)phenyl]methyl]-5-(3-methoxyphenyl)1H-pyrazol-3-yl]methoxy)-2-methylpropanoic acid] | 1.27 h | 56% | 1.32 h | 61% | – | – | –
5 | CC(C)(OCc1cc(-c2cccc(OC3CC3)c2)n(Cc2ccccc2Cl)n1)C(=O)O [Example 39, 2-([1-[(2-Chlorophenyl)methyl]-5-[3-(cyclopropoxy)phenyl]1H-pyrazol-3-yl]methoxy)-2-methylpropanoic acid] | 6.33 h | 89% | 6.17 h | 88% | – | – | –
6 | COc1cccc(-c2c(C)c(COC(C)(C)C(=O)O)nn2Cc2ccccc2Cl)c1 [Example 54, 2-({1-[(2-Chlorophenyl)methyl]-5-(3-methoxyphenyl)-4-methyl-1H-pyrazol-3-yl)methoxy)-2-methylpropionic acid] | 1.3 h | 59% | 12.7 h | 95% | – | – | –
7 | COc1cccc(-c2cc(COC(C)(C)C(=O)O)nn2-c2ccccc2Cl)c1 [Example 57, 2-([1-(2-chlorophenyl)-5-(3-methoxy-phenyl)-1H-pyrazol-3-yl]methoxy)-2-methylpropanoic acid] | 3.17 h | 80% | > 33.3 h | 100% | – | – | –
8 | COc1ccc(-c2cc(COC(C)(C)C(=O)O)nn2Cc2ccccc2Cl)s1 [Example 64] | 3.33 h | 82% | 4.5 h | 84% | – | – | –
9 | COc1csc(-c2cc(COC(C)(C)C(=O)O)nn2Cc2ccccc2Cl)c1 [Example 65, 2-([1-[(2-Chlorophenyl)methyl)-5-(4-methoxythien-2-yl)-1H-pyrazol-3-yl]methoxy)-2-methylpropanoic acid] | 2.33 h | 78% | 9.33 h | 92% | – | – | –
10 | COc1cc(-c2cc(COC(C)(C)C(=O)O)nn2Cc2ccccc2Cl)cs1 [Example 66, 2-([1-[(2-chlorophenyl)methyl]-5-(5-methoxythien-3-yl)-1H-pyrazol-3-yl]-methoxy)-2-methylpropanoic acid] | 2 h | 73% | 4.33 h | 83% | – | – | –
11 | CCC(C)(OCc1cc(-c2cccc(OC)c2)n(Cc2ccccc2Cl)n1)C(=O)O (centres unmarked) [Example 68, 2-([1-[(2-Chlorophenyl)methyl]-5-(3-methoxyphenyl)-1H-pyrazol-3-yl)methoxy)-2-methylbutanoic acid] | 13.2 h | 95% | 6.33 h | 91% | – | – | –
12 | CC(C)(OCc1cc(-c2cccc(OC3CCC3)c2)n(Cc2ccccc2N2CCCC2)n1)C(=O)O [Example 238, 2-([5-(3-Cyclobutoxyphenyl)-1-[[2-(pyrrolidin-1-yl)phenyl]methyl]-1H-pyrazol-3-yl]methoxy)-2-methylpropanoic acid] | – | – | – | – | 3.7 nM | 21000 nM | –
13 | CC(C)(OCc1cc(-c2cccc(OC3CC3)c2)n(-c2ccccc2C#N)n1)C(=O)O [Example 239, 2-([1-(2-Cyanophenyl)-5-(3-cyclopropoxy-phenyl)-1H-pyrazol-3-yl)methoxy)-2-methylpropanoic acid] | – | – | – | – | – | > 100000 nM | 150 nM
14 | COc1cc(OC)cc(-c2cc(COC(C)(C)C(=O)O)nn2-c2ccccc2N(C)C)c1 [Example 245, 2-([5-(3,5-Dimethoxyphenyl)-1-[2-(dimethylamino)phenyl)-1H-pyrazol-3-yl]-methoxy)-2-methylpropanoic acid] | – | – | – | – | 7.6 nM | 77000 nM | –
15 | CC(C)COc1cccc(-c2cc(COC(C)(C)C(=O)O)nn2Cc2ccccn2)c1 [Example 247, 2-Methyl-2-([5-[3-(2-methylpropoxy)-phenyl]-1-([pyridin-2-yl]methyl)-1H-pyrazol-3-yl]methoxy)propanoic acid] | – | – | – | – | 23 nM | > 100000 nM | –
16 | COc1cc(OC)cc(-c2cc(COC(C)(C)C(=O)O)nn2-c2cccc3cnn(C)c23)c1 [Example 249, 2-([5-(3,5-Dimethoxyphenyl)-1-(1-methyl-1H-indazol-7-yl)-1H-pyrazol-3-yl]methoxy)-2-methylpropanoic acid] | – | – | – | – | 39 nM | > 100000 nM | –
17 | CCOc1cccc(F)c1Cn1nc(COC(C)(C)C(=O)O)cc1-c1cc(OC)cc(OC)c1 [Example 252, 2-([5-(3,5-Dimethoxyphenyl)-1-[(2-ethoxy-6-fluorophenyl)methyl]-1H-pyrazol-3-yl]methoxy)-2-methylpropanoic acid] | – | – | – | – | 25 nM | 43000 nM | –
18 | CC(C)(C)COc1cccc(-c2cc(COC(C)(C)C(=O)O)nn2-c2cccc3cccnc23)c1 [Example 253, 2-([5-[3-(2,2-Dimethylpropoxy)phenyl]-1-(quinolin-8-yl)-1H-pyrazol-3-yl]methoxy)-2-methylpropanoic acid] | – | – | – | – | 19 nM | 55000 nM | –
19 | COc1cc(OC)cc(-c2cc(COC(C)(C)C(=O)O)nn2Cc2ccccn2)c1 [Example 254, 2-([5-(3,5-Dimethoxyphenyl)-1-([pyridin-2-yl]methyl)-1H-pyrazol-3-yl]methoxy)-2-methylpropanoic acid] | – | – | – | – | 285 nM | > 100000 nM | –
20 | Cn1ncc2cccc(Cn3nc(COC(C)(C)C(=O)O)cc3-c3cccc(OCC(C)(C)C)c3)c21 [Example 256, 2-([5-[3-(2,2-Dimethylpropoxy)phenyl]-1-[(1-methyl-1H-indazol-7-yl)methyl]-1H-pyrazol-3-yl]methoxy)-2-methylpropanoic acid] | – | – | – | – | 2.6 nM | 17000 nM | –
21 | Cn1nnc2cccc(-n3nc(COC(C)(C)C(=O)O)cc3-c3cccc(OCC(C)(C)C)c3)c21 [Example 258, 2-([5-[3-(2,2-Dimethylpropoxy)phenyl]-1-(1-methyl-1H-1,2,3-benzotriazol-7-yl)-1H-pyrazol-3-yl)methoxy)-2-methylpropanoic acid] | – | – | – | – | 12 nM | 27000 nM | –
22 | CCn1ncc2ccc(-c3cc(COC(C)(C)C(=O)O)nn3Cc3ccccn3)cc21 [Example 259, 2-([5-(1-Ethyl-1H-indazol-6-yl)-1-([pyridin-2-yl]methyl)-1H-pyrazol-3-yl]methoxy)-2-methylpropanoic acid] | – | – | – | – | 850 nM | > 100000 nM | –
23 | CCn1nnc2ccc(-c3cc(COC(C)(C)C(=O)O)nn3Cc3ccccc3Cl)cc21 [Example 261] | – | – | – | – | 17 nM | 43000 nM | –
24 | CC[C@@](C)(OCc1cc(-c2cccc(OC3CC3)c2)n(-c2ccccc2Cl)n1)C(=O)O [Example 262, (2R)-2-([1-(2-Chlorophenyl)-5-(3-cyclopropoxyphenyl)-1H-pyrazol-3-yl]methoxy)-2-methylbutanoic acid] | – | – | – | – | 9.1 nM | 7900 nM | –
25 | CC[C@@](C)(OCc1cc(-c2cccc(OCC(C)C)c2)n(-c2cccc3cnn(C)c23)n1)C(=O)O [Example 263, (2R)-2-Methyl-2-([1-(1-methyl-1H-indazol-7-yl)-5-[3-(2-methylpropoxy)phenyl]-1H-pyrazol-3-yl]methoxy]butanoic acid] | – | – | – | – | 2.2 nM | 16000 nM | –
26 | Cc1nn(C)c2sc(-c3cc(COC(C)(C)C(=O)O)nn3Cc3ccccc3Cl)cc12 [Example 265, 2-([1-[(2-Chlorophenyl)methyl]-5-[1,3-dimethyl-1H-thieno[2,3-c]pyrazol-5-yl]-1H-pyrazol-3-yl)methoxy)-2-methylpropanoic acid] | – | – | – | – | 5.6 nM | 84000 nM | –
